# Experimental data published in article doi:10.1101/2025.04.25.650653, “Hierarchical small molecule inhibition of MYST acetyltransferases” (bioRxiv, 2025).
# “And” between values parts separate entries of the source, which are not always exact repeats. Identical values can stand only once.
# Test system: histone modifications in MCF-7 cells
# Assay: Histone modification analysis by bottom-up LC-MS/MS
# Assay type: cell-based
# Conditions: for Ratio, H2A1_12_17 unmod / Ratio, H2A3_12_17 K15me1: MCF-7; for Ratio, H3_3_8 K4me1 / Ratio, H3_3_8 unmod / Ratio, H3_54_63 unmod / Ratio, H3_41_49 unmod: Replicates 1-3
# From the text: In this approach. […] Histones are then extracted from cell pellets and chemically derivatized with propionic anhydride, digested with trypsin, subjected to a second round of propionylation, and analyzed by LC-MS/MS. Measuring the relative intensity of modified versus unmodified forms of individual histone peptides enables simultaneous monitoring of multiple potential biomarkers of MYST inhibition. To minimize false positives, we focused on abundant and reproducible modifications (average stoichiometry of greater than 1% across triplicate samples, standard deviation less than or equal to the average measurement). To account for potential histone modification crosstalk, changes in both acetylated and methylated peptides were evaluated. 38 modified peptides passed this reproducible detection threshold including several established KAT biomarkers[41] including H3K9Ac (KAT2A/B), H3K18Ac (KAT3A/B), H3K14Ac (KAT7), H3K23Ac (KAT6A/B), H4K16Ac (KAT8), and H2A.ZK4/K7Ac (KAT5; Fig. 4B).
# Histone modification analysis
# MCF-7 cells were cultured at 37 °C under 5% CO2 in EMEM (Quality Biological, 112-016-101) with 0.01 mg/mL human recombinant insulin (Sigma Aldrich, 91077C), 2 mM L-glutamine (Quality Biological, 118- […]
# human recombinant insulin.
# 1119, WM-3835). Following 24 h inhibitor treatment, cells were washed with ice-cold 1× PBS and scraped in 150 µL of Nuclear Isolation Buffer (NIB) containing 0.1% NP-40 for histone extraction using a modified protocol from the Garcia laboratory. 9 Briefly, cell suspensions were incubated on ice for 5 minutes, and […]
# nuclei were pelleted by centrifugation (600 rcf, 4°C, 5 min). Pelleted nuclei were washed twice with 150 μL of detergent-free NIB buffer, followed by centrifugation (600 rcf, 4°C, 5 min) to remove all detergent.
# Nuclei were then resuspended in 400 μL of 0.4 N H₂SO₄ and rotated at 4°C overnight for acid extraction of histones. The following day, samples were centrifuged (11,000 rcf, 4°C, 10 min) and the histone-containing supernatant was transferred to a fresh tube. Trichloroacetic acid (100% TCA) was added to achieve a final concentration of 20% (v/v), tubes were inverted once to mix, and histone precipitation was performed on ice for at least 3 hours or overnight at 4°C. Precipitated histones were collected by centrifugation (11,000 rcf, 4°C, 10 min) and the supernatant carefully removed, leaving a visible film of histones on the tube wall or bottom. Histone pellets were subjected to sequential washes with 1 mL of ice-cold acidified acetone (0.1% 12 N HCl) followed by 1 mL of 100% ice-cold acetone, with centrifugation (11,000 rcf, 4°C, 5 min) after each wash. Samples were air-dried at room temperature, resuspended in 40 µL of ddH₂O, and protein […]
# analysis, 1-2 µg of purified histones were loaded per lane and processed according to the general immunoblotting protocol described in General Materials and Methods.
# Analysis of histone modifications by LC-MS/MS
# Preparation of histone samples for LC-MS/MS was performed analogously to the procedure for immunoblotting above, with the following modifications. MCF7 cells (4.2 × 106) were seeded in 15 cm dishes and treated with PF-9363 or vehicle. Experiments were performed in triplicate. Following treatment and PBS washing, cells were scraped and collected in 15 mL falcon tubes, pelleted (500 rcf, 4°C, 5 min), resuspended in 1 mL cold PBS, transferred to microcentrifuge tubes, and pelleted again before flash-freezing in liquid nitrogen for storage at -80°C. For extraction, cell pellets (~100 μL) were resuspended in NIB buffer at a 1:10 ratio, and cells were lysed with NIB buffer containing 0.2% NP-40 for 8 minutes on ice. Nuclei were pelleted at 1,000 rcf for 8 minutes and washed three times with 500 μL detergent-free NIB buffer. Histones were extracted using 800 μL of 0.2 M H₂SO₄, and after centrifugation (3,400 rcf, 4°C, 10
# [1] = TKQTAR(H3_3_8), PF-9363 0.1 v 30
# [2] = TKQTAR(H3_3_8), PF-9363 (0.1 mM)
# [3] = TKQTAR(H3_3_8), PF-9363 (30 mM)
smiles,measurement,setting,value
COc1cccc(OC)c1S(=O)(=O)Nc1noc2cc(Cn3cccn3)cc(OC)c12 [PF-9363],"Ratio, H2A1_12_17 unmod","Replicate 2, PF-9363 30",0.4993
same,"Ratio, H2A3_12_17 K15me1","Replicate 2, PF-9363 30",0.4897
same,"Ratio, H2A1_12_17 unmod","Replicate 3, PF-9363 0.1",0.4868
same,"Ratio, H2A3_12_17 K15me1","Replicate 3, PF-9363 0.1",0.466
same,"Ratio, H2A1_12_17 unmod","Replicate 3, PF-9363 1",0.5044
same,"Ratio, H2A3_12_17 K15me1","Replicate 3, PF-9363 1",0.4869
same,"Ratio, H2A1_12_17 unmod","Replicate 3, PF-9363 10",0.4939
same,"Ratio, H2A3_12_17 K15me1","Replicate 3, PF-9363 10",0.4755
same,"Ratio, H2A1_12_17 unmod","Replicate 3, PF-9363 30",0.5006
same,"Ratio, H2A3_12_17 K15me1","Replicate 3, PF-9363 30",0.4892
same,"Fold-change 0.1 v 30, H3_3_8 K4me1",[1],1.02
same,"Fold-change 0.1 v 30, H3_3_8 unmod",[1],1.00
same,"Average ratio, H3_3_8 K4me1",[2],0.0973
same,"Average ratio, H3_3_8 unmod",[2],0.8963
same,"Average ratio, H3_3_8 K4me1",[3],0.0953
same,"Average ratio, H3_3_8 unmod",[3],0.8973
same,"Ratio, H3_3_8 K4me1","TKQTAR(H3_3_8), dose 0.1",0.09461 and 0.103 and 0.09428
same,"Ratio, H3_3_8 unmod","TKQTAR(H3_3_8), dose 0.1",0.9002 and 0.8874 and 0.9011
same,"Ratio, H3_3_8 K4me1","TKQTAR(H3_3_8), dose 1",0.09313 and 0.09156 and 0.09495
same,"Ratio, H3_3_8 unmod","TKQTAR(H3_3_8), dose 1",0.903 and 0.9014 and 0.9006
same,"Ratio, H3_3_8 K4me1","TKQTAR(H3_3_8), dose 10",0.1087 and 0.09351 and 0.1018
same,"Ratio, H3_3_8 unmod","TKQTAR(H3_3_8), dose 10",0.8856 and 0.9033 and 0.8936
same,"Ratio, H3_3_8 K4me1","TKQTAR(H3_3_8), dose 30",0.09818 and 0.09712 and 0.09049
same,"Ratio, H3_3_8 unmod","TKQTAR(H3_3_8), dose 30",0.8954 and 0.8931 and 0.9034
same,"Fold-change 0.1 v 30, H3_54_63 unmod","YQKSTELLIR(H3_54_63), PF-9363 0.1 v 30",0.99
same,"Average ratio, H3_54_63 unmod","YQKSTELLIR(H3_54_63), PF-9363 (0.1 mM)",0.9888
same,"Average ratio, H3_54_63 unmod","YQKSTELLIR(H3_54_63), PF-9363 (30 mM)",0.9942
same,"Ratio, H3_54_63 unmod","YQKSTELLIR(H3_54_63), dose 0.1",0.9974 and 0.9808 and 0.9881
same,"Ratio, H3_54_63 unmod","YQKSTELLIR(H3_54_63), dose 1",0.9878 and 0.9887 and 0.9945
same,"Ratio, H3_54_63 unmod","YQKSTELLIR(H3_54_63), dose 10",0.9895 and 0 and 0.9781
same,"Ratio, H3_54_63 unmod","YQKSTELLIR(H3_54_63), dose 30",0.9962 and 0.9919 and 0.9944
same,"Fold-change 0.1 v 30, H3_41_49 unmod","YRPGTVALR(H3_41_49), PF-9363 0.1 v 30",1.00
same,"Average ratio, H3_41_49 unmod","YRPGTVALR(H3_41_49), PF-9363 (0.1 mM)",0.9999
same,"Average ratio, H3_41_49 unmod","YRPGTVALR(H3_41_49), PF-9363 (30 mM)",0.9999
same,"Ratio, H3_41_49 unmod","YRPGTVALR(H3_41_49), dose 0.1",0.9999 and 1 and 0.9998
same,"Ratio, H3_41_49 unmod","YRPGTVALR(H3_41_49), dose 1",0.9993 and 1 and 0.9999
same,"Ratio, H3_41_49 unmod","YRPGTVALR(H3_41_49), dose 10",0.9997 and 1 and 0.9999
same,"Ratio, H3_41_49 unmod","YRPGTVALR(H3_41_49), dose 30",1 (2×) and 0.9996
same,"Fold-change 0.1 v 30, H2A1_1_11 K5ac",average ratio 0.1 v 30,0.99
same,"Fold-change 0.1 v 30, H2A1_4_11 K5ac",average ratio 0.1 v 30,0.88
same,"Fold-change 0.1 v 30, H2A1_4_11 K9ac",average ratio 0.1 v 30,1.17
same,"Fold-change 0.1 v 30, H2A1_4_11 unmod",average ratio 0.1 v 30,0.99
same,"Fold-change 0.1 v 30, H2A1_36_42 unmod",average ratio 0.1 v 30,1.00
same,"Fold-change 0.1 v 30, H2A3_36_42 unmod",average ratio 0.1 v 30,1.00
same,"Fold-change 0.1 v 30, H2AJ_4_11 K5acK9ac",average ratio 0.1 v 30,0.98
same,"Fold-change 0.1 v 30, H2AV_1_19 K4ac",average ratio 0.1 v 30,0.98
same,"Fold-change 0.1 v 30, H2AV_1_19 unmod",average ratio 0.1 v 30,1.14
same,"Fold-change 0.1 v 30, H2AX_36_42 unmod",average ratio 0.1 v 30,1.00
same,"Fold-change 0.1 v 30, H2AZ_1_19 K11ac",average ratio 0.1 v 30,0.64
same,"Fold-change 0.1 v 30, H2AZ_1_19 unmod",average ratio 0.1 v 30,0.92
same,"Fold-change 0.1 v 30, H3_73_83 K79me1",average ratio 0.1 v 30,1.08
same,"Fold-change 0.1 v 30, H3_73_83 K79me2",average ratio 0.1 v 30,1.32
same,"Fold-change 0.1 v 30, H3_73_83 unmod",average ratio 0.1 v 30,0.97
same,"Fold-change 0.1 v 30, H4_4_17 K12acK16ac",average ratio 0.1 v 30,0.05
same,"Fold-change 0.1 v 30, H4_4_17 unmod",average ratio 0.1 v 30,1.46
same,"Fold-change 0.1 v 30, H4_20_23 K20me1",average ratio 0.1 v 30,1.30
same,"Fold-change 0.1 v 30, H4_20_23 unmod",average ratio 0.1 v 30,1.38
